According to PubChem BioAssay (NCI):
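These data come from cells grown in 96-well plates and exposed to compound for 48 hours at five concentrations. GI50 is the concentration that inhibits growth by half. TGI denotes the concentration required for complete inhibition of growth.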

Columns and labels:
Assay in all cases: inhibition of tumour cell growth, NCI panel, 48 h
[1] = test system: 786-0 renal
[2] = test system: A498 renal
[3] = test system: A549 NSCLC
[4] = test system: ACHN renal
[5] = test system: BT-549 breast
[6] = test system: CAKI-1 renal
[7] = test system: CCRF-CEM leukemia
[8] = test system: COLO 205 colon
[9] = test system: DU-145 prostate
[10] = test system: EKVX NSCLC
[11] = test system: HCC-2998 colon
[12] = test system: HCT-116 colon
[13] = test system: HCT-15 colon
[14] = test system: HL-60(TB) leukemia
[15] = test system: HOP-62 NSCLC
[16] = test system: HOP-92 NSCLC
[17] = test system: HS 578T breast
[18] = test system: HT29 colon
[19] = test system: IGROV1 ovarian
[20] = test system: K-562 leukemia
[21] = test system: KM12 colon
[22] = test system: LOX IMVI melanoma
[23] = test system: M14 melanoma
[24] = test system: MALME-3M melanoma
[25] = test system: MCF7 breast
[26] = test system: MDA-MB-231 breast
[27] = test system: MDA-MB-435
[28] = test system: MOLT-4 leukemia
[29] = test system: NCI-H226 lung
[30] = test system: NCI-H23 lung
[31] = test system: NCI-H460 lung
[32] = test system: NCI-H522 lung
[33] = test system: NCI/ADR-RES ovarian
[34] = test system: OVCAR-3 ovarian
[35] = test system: OVCAR-4 ovarian
[36] = test system: OVCAR-5 ovarian
[37] = test system: OVCAR-8 ovarian
[38] = test system: PC-3 prostate
[39] = test system: RPMI-8226 leukemia
[40] = test system: RXF 393 renal
[41] = test system: SF-268 CNS
[42] = test system: SF-295 CNS
[43] = test system: SF-539 CNS
[44] = test system: SK-MEL-2 melanoma
[45] = test system: SK-MEL-28 melanoma
[46] = test system: SK-MEL-5 melanoma
[47] = test system: SK-OV-3 ovarian
[48] = test system: SN12C renal
[49] = test system: SNB-19 CNS
[50] = test system: SNB-75 CNS
[51] = test system: SR leukemia
[52] = test system: SW-620 colon
[53] = test system: T-47D breast
[54] = test system: TK-10 renal
[55] = test system: U251 CNS
[56] = test system: UACC-257 melanoma
[57] = test system: UACC-62 melanoma
[58] = test system: UO-31 renal

SMILES: Cn1ccnc1C(=O)/C=C/c1ccc(C(=O)Nc2ccccc2O)cc1
- GI50 [1]: 1.98 µM
- TGI [1]: 4.64 µM
- GI50 [2]: 2.07 µM
- TGI [2]: 6.18 µM
- GI50 [3]: 3.03 µM
- TGI [3]: 13.6 µM
- GI50 [4]: 1.99 µM
- TGI [4]: 4.01 µM
- GI50 [5]: 1.8 µM
- TGI [5]: 5.05 µM
- GI50 [6]: 1.65 µM
- TGI [6]: 4.03 µM
- GI50 [7]: 1.13 µM
- TGI [7]: 8.25 µM
- GI50 [8]: 2.51 µM
- TGI [8]: 5.15 µM
- GI50 [9]: 1.95 µM
- TGI [9]: 5.23 µM
- GI50 [10]: 2.45 µM
- TGI [10]: 7.09 µM
- GI50 [11]: 2.29 µM
- TGI [11]: 4.26 µM
- GI50 [12]: 0.866 µM
- TGI [12]: 2.64 µM
- GI50 [13]: 1.42 µM
- TGI [13]: 5.49 µM
- GI50 [14]: 2.13 µM
- TGI [14]: 5.73 µM
- GI50 [15]: 4.6 µM
- TGI [15]: 15.1 µM
- GI50 [16]: 2.11 µM
- TGI [16]: 6.68 µM
- GI50 [17]: 2.95 µM
- TGI [17]: 15.9 µM
- GI50 [18]: 2.4 µM
- TGI [18]: 7.3 µM
- GI50 [19]: 1.97 µM
- TGI [19]: 4.88 µM
- GI50 [20]: 0.939 µM
- TGI [20]: 34 µM
- GI50 [21]: 1.96 µM
- TGI [21]: 4.44 µM
- GI50 [22]: 1.38 µM
- TGI [22]: 3.12 µM
- GI50 [23]: 1.82 µM
- TGI [23]: 4.28 µM
- GI50 [24]: 1.63 µM
- TGI [24]: 3.81 µM
- GI50 [25]: 1.77 µM
- TGI [25]: 6.51 µM
- GI50 [26]: 3.26 µM
- TGI [26]: 12.3 µM
- GI50 [27]: 2.22 µM
- TGI [27]: 4.85 µM
- GI50 [28]: 2.38 µM
- TGI [28]: 8.18 µM
- GI50 [29]: 2.35 µM
- TGI [29]: 7.8 µM
- GI50 [30]: 2.91 µM
- TGI [30]: 9.67 µM
- GI50 [31]: 1.67 µM
- TGI [31]: 5.6 µM
- GI50 [32]: 1.86 µM
- TGI [32]: 5.47 µM
- GI50 [33]: 2.86 µM
- TGI [33]: 22.6 µM
- GI50 [34]: 2.32 µM
- TGI [34]: 6.37 µM
- GI50 [35]: 2.5 µM
- TGI [35]: 12.5 µM
- GI50 [36]: 2.39 µM
- TGI [36]: 7.09 µM
- GI50 [37]: 3.29 µM
- TGI [37]: 14.9 µM
- GI50 [38]: 1.89 µM
- TGI [38]: 4.8 µM
- GI50 [39]: 0.62 µM
- TGI [39]: 3.8 µM
- GI50 [40]: 1.62 µM
- TGI [40]: 3.41 µM
- GI50 [41]: 2.39 µM
- TGI [41]: 7.2 µM
- GI50 [42]: 3.53 µM
- TGI [42]: 12.1 µM
- GI50 [43]: 1.56 µM
- TGI [43]: 3.5 µM
- GI50 [44]: 5.9 µM
- TGI [44]: 21.8 µM
- GI50 [45]: 2.11 µM
- TGI [45]: 5.07 µM
- GI50 [46]: 3.36 µM
- TGI [46]: 11.1 µM
- GI50 [47]: 4.13 µM
- TGI [47]: 14.5 µM
- GI50 [48]: 2.79 µM
- TGI [48]: 10.1 µM
- GI50 [49]: 2.6 µM
- TGI [49]: 11.5 µM
- GI50 [50]: 0.918 µM
- TGI [50]: 8.58 µM
- GI50 [51]: 0.307 µM
- TGI [51]: 6.55 µM
- GI50 [52]: 1.62 µM
- TGI [52]: 4.12 µM
- GI50 [53]: 2.68 µM
- TGI [53]: 10.8 µM
- GI50 [54]: 3.2 µM
- TGI [54]: 12.7 µM
- GI50 [55]: 1.46 µM
- TGI [55]: 4.03 µM
- GI50 [56]: 2.51 µM
- TGI [56]: 13.3 µM
- GI50 [57]: 1.93 µM
- TGI [57]: 5.01 µM
- GI50 [58]: 1.24 µM
- TGI [58]: 2.5 µM
